Measurements from US10770169B2, “Method of providing a treatment to a subject based on a dynamic pathway map” (THE REGENTS OF THE UNIVERSITY OF CALIFORNIA, priority 2010, dated 2020).
Like-named read-outs stand apart in the source and are kept apart here.

Assays:
[1] = tested on: luminal, basal, claudin-low and ERBB2AMP breast cancer cell lines; test: Associations of clinically relevant subtypes and response (non-parametric ANOVA or t-test on GI50 ranks); type: cell-based, human; conditions: Table 6; most sensitive subtype, FDR p<0.20
Text: A central premise of this study is that associations between responses and molecular subtypes observed in preclinical cell line analyses will be recapitulated in the clinic in instances where the predictive molecular features in the cell lines are mirrored in human tumors. We established response-subtype associations by using non-parametric ANOVAs to compare […] values across transcriptional and genomics subtypes.
Differences between GI50s of the groups were compared with a non-parametric ANOVA or t-test, as appropriate, on the ranks. We combined the p-values for the three sets of tests and used false discovery rate (FDR) to correct for multiple testing. For the three-sample test, we performed a post-hoc analysis on the compounds with a significant class effect by comparing each group to all others to determine which group was most sensitive. The p-values for the post-hoc test were FDR-corrected together. In all cases, FDR p<0.20 was deemed significant. […] Analyses were performed in R.

[2] = tested on: panel of 55 breast cancer cell lines; test: Cell growth inhibition assay (Cell Titer Glo, 72 h, 9 doses; GI50, TGI, LC50); type: cell-based, human

Structure (SMILES): CCN(CC)CCCCNc1ncc2cc(-c3cc(OC)cc(OC)c3)c(NC(=O)NC(C)(C)C)nc2n1 [PD173074]
- Subtype specificity [1]: Claudin-low
- GI50 ([2]; Homo sapiens, 600MPE cell line, censored GI50 values, read-out: GI50 (converted)): 9.77 µM
- GI50 ([2]; Homo sapiens, AU565, AU565 cell line, censored GI50 values, read-out: GI50 (converted)): 7.41 µM
- GI50 ([2]; Homo sapiens, AU565, cell line AU565, read-out: GI50 (converted)): 7.41 µM
- GI50 ([2]; Homo sapiens, BT-20, BT20 cell line, censored GI50 values, read-out: GI50 (converted)): 15.8 µM
- GI50 ([2]; Homo sapiens, BT-20, cell line BT20, read-out: GI50 (converted)): 15.8 µM
- GI50 ([2]; Homo sapiens, BT-474, cell line BT474, read-out: GI50 (converted)): 33.1 µM
- GI50 ([2]; Homo sapiens, BT-549, BT549 cell line, censored GI50 values, read-out: GI50 (converted)): 7.41 µM
- GI50 ([2]; Homo sapiens, BT-549, cell line BT549, read-out: GI50 (converted)): 7.41 µM
- GI50 ([2]; Homo sapiens, HCC38, cell line HCC38, read-out: GI50 (converted)): 2.95 µM
- GI50 ([2]; Homo sapiens, HCC70, cell line HCC70, read-out: GI50 (converted)): 7.08 µM
- GI50 ([2]; Homo sapiens, HCC202, cell line HCC202, read-out: GI50 (converted)): 8.51 µM
- GI50 ([2]; Homo sapiens, HCC1143, HCC1143 cell line, censored GI50 values, read-out: GI50 (converted)): 13.5 µM
- GI50 ([2]; Homo sapiens, HCC1143, cell line HCC1143, read-out: GI50 (converted)): 13.5 µM
- GI50 ([2]; Homo sapiens, HCC1187, HCC1187 cell line, censored GI50 values, read-out: GI50 (converted)): 10.7 µM
- GI50 ([2]; Homo sapiens, HCC1187, cell line HCC1187, read-out: GI50 (converted)): 10.7 µM
- GI50 ([2]; Homo sapiens, HCC1395, HCC1395 cell line, censored GI50 values, read-out: GI50 (converted)): 0.617 µM
- GI50 ([2]; Homo sapiens, HCC1395, cell line HCC1395, read-out: GI50 (converted)): 0.617 µM
- GI50 ([2]; Homo sapiens, HCC1419, HCC1419 cell line, censored GI50 values, read-out: GI50 (converted)): 4.47 µM
- GI50 ([2]; Homo sapiens, HCC1419, cell line HCC1419, read-out: GI50 (converted)): 4.47 µM
- GI50 ([2]; Homo sapiens, HCC1428, HCC1428 cell line, censored GI50 values, read-out: GI50 (converted)): 6.76 µM
- GI50 ([2]; Homo sapiens, HCC1428, cell line HCC1428, read-out: GI50 (converted)): 6.76 µM
- GI50 ([2]; Homo sapiens, HCC1500, cell line HCC1500, read-out: GI50 (converted)): 24.5 µM
- GI50 ([2]; Homo sapiens, HCC1806, HCC1806 cell line, censored GI50 values, read-out: GI50 (converted)): 5.01 µM
- GI50 ([2]; Homo sapiens, HCC1806, cell line HCC1806, read-out: GI50 (converted)): 5.01 µM
- GI50 ([2]; Homo sapiens, HCC1937, HCC1937 cell line, censored GI50 values, read-out: GI50 (converted)): 7.59 µM
- GI50 ([2]; Homo sapiens, HCC1937, cell line HCC1937, read-out: GI50 (converted)): 7.59 µM
- GI50 ([2]; Homo sapiens, HCC1954, HCC1954 cell line, censored GI50 values, read-out: GI50 (converted)): 7.59 µM
- GI50 ([2]; Homo sapiens, HCC1954, cell line HCC1954, read-out: GI50 (converted)): 7.59 µM
- GI50 ([2]; Homo sapiens, MDA-MB-157, cell line MDAMB157, read-out: GI50 (converted)): 2.34 µM
- GI50 ([2]; Homo sapiens, MDA-MB-231, cell line MDAMB231, read-out: GI50 (converted)): 6.76 µM
- GI50 ([2]; Homo sapiens, MDA-MB-361, cell line MDAMB361, read-out: GI50 (converted)): 15.1 µM
- GI50 ([2]; Homo sapiens, MDA-MB-436, cell line MDAMB436, read-out: GI50 (converted)): 6.46 µM
- GI50 ([2]; Homo sapiens, MDA-MB-453, cell line MDAMB453, read-out: GI50 (converted)): 1.95 µM
- GI50 ([2]; Homo sapiens, MDA-MB-468, cell line MDAMB468, read-out: GI50 (converted)): 6.61 µM
- GI50 ([2]; Homo sapiens, SK-BR-3, cell line SKBR3, read-out: GI50 (converted)): 7.94 µM
- GI50 ([2]; Homo sapiens, SUM52PE, cell line SUM52PE, read-out: GI50 (converted)): 0.0229 µM
- GI50 ([2]; Homo sapiens, SUM149PT, cell line SUM149PT, read-out: GI50 (converted)): 9.12 µM
- GI50 ([2]; Homo sapiens, SUM-159-PT, cell line SUM159PT, read-out: GI50 (converted)): 6.46 µM
- GI50 ([2]; Homo sapiens, T47D, cell line T47D, read-out: GI50 (converted)): 13.5 µM
- GI50 ([2]; Homo sapiens, UACC-812, cell line UACC812, read-out: GI50 (converted)): 7.08 µM
- GI50 ([2]; Homo sapiens, UACC-893, cell line UACC893, read-out: GI50 (converted)): 6.92 µM
- GI50 ([2]; Homo sapiens, ZR-75-1, cell line ZR751, read-out: GI50 (converted)): 15.5 µM
- GI50 ([2]; Homo sapiens, cell line 600MPE, read-out: GI50 (converted)): 9.77 µM
- GI50 ([2]; Homo sapiens, cell line HCC2185, read-out: GI50 (converted)): 29.5 µM
- GI50 ([2]; Homo sapiens, cell line HCC3153, read-out: GI50 (converted)): 15.5 µM
- GI50 ([2]; Homo sapiens, cell line LY2, read-out: GI50 (converted)): 7.41 µM
- GI50 ([2]; Homo sapiens, cell line MDAMB134V, read-out: GI50 (converted)): 18.6 µM
- GI50 ([2]; Homo sapiens, cell line SUM1315MO, read-out: GI50 (converted)): 3.39 µM

Structure (SMILES): Cc1cc(C(C)Nc2ccccc2)c2nc(N3CCOCC3)cc(=O)n2c1 (stereo not drawn) [TGX-221]
- Subtype specificity [1]: Luminal
- GI50 ([2]; 600MPE cell line, censored GI50 values, value is the negative log10 of mol/L): 5.09
- GI50 ([2]; AU565 cell line, censored GI50 values, value is the negative log10 of mol/L): 5.18
- GI50 ([2]; BT20 cell line, censored GI50 values, value is the negative log10 of mol/L): 4.77
- GI50 ([2]; BT474 cell line, censored GI50 values, value is the negative log10 of mol/L): 5.10
- GI50 ([2]; BT483 cell line, censored GI50 values, value is the negative log10 of mol/L): 5.37
- GI50 ([2]; CAMA1 cell line, censored GI50 values, value is the negative log10 of mol/L): 5.10
- GI50 ([2]; HCC38 cell line, censored GI50 values, value is the negative log10 of mol/L): 5.11
- GI50 ([2]; HCC70 cell line, censored GI50 values, value is the negative log10 of mol/L): 5.98
- GI50 ([2]; HCC202 cell line, censored GI50 values, value is the negative log10 of mol/L): 5.20
- GI50 ([2]; HCC1187 cell line, censored GI50 values, value is the negative log10 of mol/L): 5.48
- GI50 ([2]; HCC1395 cell line, censored GI50 values, value is the negative log10 of mol/L): 5.13
- GI50 ([2]; HCC1419 cell line, censored GI50 values, value is the negative log10 of mol/L): 5.16
- GI50 ([2]; HCC1428 cell line, censored GI50 values, value is the negative log10 of mol/L): 4.77
- GI50 ([2]; HCC1954 cell line, censored GI50 values, value is the negative log10 of mol/L): 4.79
- GI50 ([2]; HCC3153 cell line, censored GI50 values, value is the negative log10 of mol/L): 4.38
- GI50 ([2]; LY2 cell line, censored GI50 values, value is the negative log10 of mol/L): 4.78
- GI50 ([2]; MDAMB134VI cell line, censored GI50 values, value is the negative log10 of mol/L): 4.78
- GI50 ([2]; MDAMB231 cell line, censored GI50 values, value is the negative log10 of mol/L): 4.61
- GI50 ([2]; MDAMB361 cell line, censored GI50 values, value is the negative log10 of mol/L): 4.75
- GI50 ([2]; MDAMB436 cell line, censored GI50 values, value is the negative log10 of mol/L): 4.72
- GI50 ([2]; MDAMB453 cell line, censored GI50 values, value is the negative log10 of mol/L): 4.81
- GI50 ([2]; MDAMB468 cell line, censored GI50 values, value is the negative log10 of mol/L): 6.27
- GI50 ([2]; SKBR3 cell line, censored GI50 values, value is the negative log10 of mol/L): 5.33
- GI50 ([2]; SUM159PT cell line, censored GI50 values, value is the negative log10 of mol/L): 4.49
- GI50 ([2]; SUM1315MO2 cell line, censored GI50 values, value is the negative log10 of mol/L): 5.04
- GI50 ([2]; cell line 600MPE, value is the negative log10 of mol/L): 5.09
- GI50 ([2]; cell line AU565, value is the negative log10 of mol/L): 5.18
- GI50 ([2]; cell line BT20, value is the negative log10 of mol/L): 4.77
